Data reported in patent US7176217B2, “Azabicyclo compound matrix metalloprotease inhibitor and skin preparation” (Shiseido Co., Ltd., priority 2001, dated 2007).

Each molecule was assayed against T1, MMP-9 (crude enzyme solution derived from a mouse skin) (Mus musculus, UniProt P41245) (assay: Gelatinase group MMPs inhibition test (gelatin zymography)). Conditions: sample solution 100 μM; gel incubated overnight; size of MMP-9 band compared with control solution.
T1 construct: crude enzyme solution derived from a mouse skin; from tissue; host or cells: mouse skin
Assay type: biochemical
Set-up: key: ⊚: The band disappeared.; ◯: The band was slightly confirmed.; Δ: The band became narrower than control.; X: Unchanged
Method: A test material was dissolved in dimethyl sulfoxide (DMSO) to the concentration of 10 mM, to prepare a stock solution. The stock solution was diluted with a measuring buffer (0.05M tris at pH 7.5 containing 0.2M NaCl and 5 mM CaCl2) to adjust the concentration to 100 μM, which was used as a sample solution. As a control solution, a solution containing no test material was similarly prepared.
As a gelatinase group enzyme, MMP-9 (crude enzyme solution derived from a mouse skin) was used. The test was performed according to a gelatin zymography method (“Bio-antioxidant provitamin C”, Nobuhiko Miwa ed., p. 76, 1999, Fragrance Journal, Tokyo).
That is, a gel containing gelatin in which a predetermined amount of the crude enzyme solution had been subjected to electrophoresis in advance, was incubated overnight with a sample solution or a control solution. After the gel was stained, the appearing band corresponding to MMP-9 was evaluated by a decrease when its size compared with that of a band of control solution. Evaluation criteria was as follows: • ⊚: The band disappeared. • ◯: The band was slightly confirmed. • Δ: The band became narrower than control. • X: Unchanged.

T1 sequence (P41245 108-730): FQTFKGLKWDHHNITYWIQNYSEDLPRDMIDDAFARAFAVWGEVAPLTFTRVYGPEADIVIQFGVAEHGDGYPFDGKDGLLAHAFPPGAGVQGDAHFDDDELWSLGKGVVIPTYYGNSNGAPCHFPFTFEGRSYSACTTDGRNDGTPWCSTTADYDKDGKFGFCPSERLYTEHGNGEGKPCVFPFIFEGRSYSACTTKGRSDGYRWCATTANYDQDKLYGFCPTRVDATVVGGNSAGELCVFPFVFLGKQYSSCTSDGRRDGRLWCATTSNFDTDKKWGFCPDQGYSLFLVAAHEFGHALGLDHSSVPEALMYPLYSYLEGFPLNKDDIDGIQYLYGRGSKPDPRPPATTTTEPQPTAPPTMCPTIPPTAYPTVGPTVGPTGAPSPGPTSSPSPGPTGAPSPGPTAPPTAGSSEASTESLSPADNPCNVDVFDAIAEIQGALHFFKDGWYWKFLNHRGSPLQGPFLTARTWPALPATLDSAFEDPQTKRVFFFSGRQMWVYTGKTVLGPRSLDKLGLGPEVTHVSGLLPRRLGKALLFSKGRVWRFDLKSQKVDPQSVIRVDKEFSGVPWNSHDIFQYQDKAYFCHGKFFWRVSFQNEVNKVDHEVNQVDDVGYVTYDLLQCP

**Q.** `COc1ccc(S(=O)(=O)N2C3CCC(C3)C2C(=O)NO)cc1` (centres unmarked) [Compound 1, N-Hydroxy-2-[(4-methoxyphenyl)sulfonyl]-2-azabicyclo[2.2.1]heptane-3-carboxamide] was tested. Which “MMPs Inhibition” value did it give?
**A.** ◯~⊚

**Q.** For `COc1ccc(S(=O)(=O)N2[C@H]3CC[C@H](C3)[C@@H]2C(=O)NO)cc1` [Compound 3, (1S, 3R, 4R)—N-Hydroxy-2-[(4-methoxyphenyl)sulfonyl]-2-azabicyclo[2.2.1]heptane-3-carboxamide], which “MMPs Inhibition” value is on record?
**A.** ◯~⊚

**Q.** `COc1ccc(S(=O)(=O)N2C3CCC(CC3)[C@@H]2C(=O)NO)cc1` [Compound 7, (3R)—N-Hydroxy-2-[(4-methoxyphenyl)sulfonyl]-2-azabicyclo[2.2.2]octane-3-carboxamide] was tested. Which “MMPs Inhibition” value did it give?
**A.** ◯~⊚

**Q.** For `O=C(NO)[C@H]1[C@@H]2CC[C@@H](C2)N1S(=O)(=O)c1ccccc1` [Compound 8, (1S, 3R, 4R)—N-Hydroxy-2-(phenylsulfonyl)-2-azabicyclo[2.2.1]heptane-3-carboxamide], which “MMPs Inhibition” value is on record?
**A.** ◯

**Q.** For `O=C(NO)[C@H]1[C@@H]2CC[C@@H](C2)N1S(=O)(=O)c1ccc(Cl)cc1` [Compound 9, (1S, 3R, 4R)-2-[(4-Chlorophenyl)sulfonyl]-N-hydroxy-2-azabicyclo[2.2.1]heptane-3-carboxamide], which “MMPs Inhibition” value is on record?
**A.** ◯

**Q.** With `CCCCOc1ccc(S(=O)(=O)N2[C@H]3CCC(C3)[C@@H]2C(=O)NO)cc1` [Compound 12, (1S, 3R, 4R)-2-[4-(Butoxyphenyl)sulfonyl]-N-hydroxy-2-azabicyclo[2.2.1]heptane-3-carboxamide] as the molecule, how does the “MMPs Inhibition” value read?
**A.** ⊚

**Q.** Which “MMPs Inhibition” value does the source give for `O=C(NO)[C@H]1[C@@H]2CC[C@@H](C2)N1S(=O)(=O)c1ccc(F)cc1` [Compound 13, (1S, 3R, 4R)-2-[(4-Fluorophenyl)sulfonyl]-N-hydroxy-2-azabicyclo[2.2.1]heptane-3-carboxamide] here?
**A.** ◯

**Q.** For `COc1ccc(S(=O)(=O)N2[C@@H]3CC(C(C)(C)C)[C@H](C3)[C@@H]2C(=O)NO)cc1` (stereo partly drawn) [Compound 14, 5-(tert-Butyl)-(1R, 3R, 4S)—N-hydroxy-2-[(4-methoxyphenyl)sulfonyl]-2-azabicyclo[2.2.1]heptane-3-carboxamide], which “MMPs Inhibition” value is on record?
**A.** ◯
